The values that follow come from the NIST ThermoML archive (doi:10.1021/acs.jced.8b00125).

For this data set the following is noted: Liquid, Closed cell (Static) method.

Numbers after ± are expanded uncertainties.

A word on the vapor or sublimation pressure: it is the pressure of vapour in equilibrium with the condensed phase. As for `CCC1CCCCC1` [ethylcyclohexane], the “vapor or sublimation pressure” value (303.15 K) is listed as 2.1 ± 1 kPa; the “vapor or sublimation pressure” value (313.15 K) turned out to be 3.7 ± 1 kPa; the “vapor or sublimation pressure” value (323.15 K) turned out to be 6 ± 1 kPa; the “vapor or sublimation pressure” value (333.15 K) was found to be 9.3 ± 1 kPa; the “vapor or sublimation pressure” value (343.15 K) was 13.9 ± 1 kPa; the “vapor or sublimation pressure” value (353.15 K) was found to be 20.4 ± 1 kPa. Also, the “vapor or sublimation pressure” value (363.15 K) stood at 28.9 ± 1 kPa, the “vapor or sublimation pressure” value (373.15 K) is recorded as 40.3 ± 1 kPa, the “vapor or sublimation pressure” value (383.15 K) turned out to be 54.8 ± 1.1 kPa and the “vapor or sublimation pressure” value (393.15 K) is 73.2 ± 1.1 kPa.

Consider `CCCCCCCCCCCC` [dodecane], for which the “vapor or sublimation pressure” value by setting is: (343.15 K) 0.4 kPa; (353.15 K) 0.7 ± 1 kPa; (363.15 K) 1.2 ± 1 kPa; (373.15 K) 2 ± 1 kPa; (383.15 K) 3.2 ± 1 kPa; (393.15 K) 4.9 ± 1 kPa.

Consider `CC1CCCCC1` [methylcyclohexane], for which the “vapor or sublimation pressure” value reads like this: (303.15 K) 7.9 ± 1 kPa; (313.15 K) 12.3 ± 1 kPa; (323.15 K) 18.5 ± 1 kPa; (333.15 K) 27.1 ± 1 kPa; (343.15 K) 38.7 ± 1 kPa; (353.15 K) 53.8 ± 1.1 kPa. Besides, the “vapor or sublimation pressure” value (363.15 K) was found to be 73.3 ± 1.1 kPa.

Turning to `CCCCCCC` [heptane], the “vapor or sublimation pressure” value (303.15 K) came out at 7.9 ± 1 kPa; the “vapor or sublimation pressure” value (313.15 K) was found to be 12.4 ± 1 kPa; the “vapor or sublimation pressure” value (323.15 K) stood at 19 ± 1 kPa; the “vapor or sublimation pressure” value (333.15 K) worked out at 28.2 ± 1 kPa; the “vapor or sublimation pressure” value (343.15 K) is reported as 40.6 ± 1 kPa; the “vapor or sublimation pressure” value (353.15 K) came out at 57.1 ± 1.1 kPa.

For `C1CCCCC1` [cyclohexane], the “vapor or sublimation pressure” value came to 16.4 ± 1 kPa (303.15 K); 24.7 ± 1 kPa (313.15 K); 36.4 ± 1 kPa (323.15 K); 52 ± 1.1 kPa (333.15 K); 72.5 ± 1.1 kPa (343.15 K).

In the case of `CCCCCCCCCC` [decane], the “vapor or sublimation pressure” value reads like this: (303.15 K) 0.2 kPa; (313.15 K) 0.6 ± 1 kPa; (323.15 K) 1 ± 1 kPa; (333.15 K) 1.7 ± 1 kPa; (343.15 K) 2.7 ± 1 kPa; (353.15 K) 4.3 ± 1 kPa. For the same compound, the “vapor or sublimation pressure” value (363.15 K) is 6.6 ± 1 kPa, the “vapor or sublimation pressure” value (373.15 K) came out at 9.9 ± 1 kPa, the “vapor or sublimation pressure” value (383.15 K) came out at 14.4 ± 1 kPa and the “vapor or sublimation pressure” value (393.15 K) worked out at 20.6 ± 1 kPa.
